Results: publication PMC5344956 (Cancer Chemotherapy and Pharmacology, 2017)
One block for each molecule: values may come before it.

Tests used:
[1] = Excretion and mass balance in urine and feces; assay type: in vivo, human
Text: Six healthy male volunteers, 25–45 years of age, with a mean body weight of 83.3 kg (range 64.5–94.4) and a mean body mass index of 26.9 kg/m^2 (range 20.2–29.9) participated in the study. […] The subject release criterion was defined as follows: the combined urine and fecal radioactivity excretion for two consecutive days should fall below 1% of the dose administered.
Detailed procedures on sample collection, storage, and shipment are described in Online Resource 1. […] Urine and feces collected from each subject were pooled at predose and every 24 h thereafter. Fecal homogenates were prepared by adding water (four times the feces weight) and homogenizing.
TRA analysis was carried out at ABC Laboratories. The radioactivity in plasma (duplicate per time point) and urine samples (triplicate per time point) was quantitated by direct counting in a Beckman LS6000SC or LS6500 liquid scintillation counter (PerkinElmer Life and Analytical Sciences, Boston, MA, USA). Whole blood (duplicate per time point) and fecal homogenate (triplicate per time point) samples were oxidized, and the resultant ^14CO2 was trapped in Carbosorb (Calgon Carbon Corporation, Pittsburgh, PA, USA) in combination with Permafluor, followed by liquid scintillation counting to determine the radioactivity. Individual samples were counted for 5 min for whole blood and fecal matrices, and 10 min for plasma and urine matrices. Predose blood, plasma, urine, and feces samples served as respective control samples to determine and subtract the background radioactivity in the analysis.
All urine voided was collected and stored in containers at 5±3 °C until the collection interval was completed. Subjects voided in the morning prior to study drug administration.
Multiple collections of urine during each collection interval from each individual subject were pooled. The urine samples from each collection interval were well mixed, accurately weighed, and assessed for its pH. A 100 ml sample from each collection interval from each subject was aliquoted into a separately labeled container to be sent to ABC Laboratories for radioactivity analysis. An approximately 10 ml sample from each collection interval from each subject on day 8 and each day thereafter was used for TRA analysis at Celerion (Lincoln, NE). All urine samples were kept frozen at −80 ± 15 °C.
Stool collections began approximately 24 h prior to drug administration until the end of the postdose sampling period. The 24 h predose samples were used as control samples for the radioactivity analysis and metabolite profiling. Feces were collected daily (24 h collection periods) until subjects were discharged from the clinical research unit.
All fecal samples were collected in polypropylene containers; toilet paper was collected separately. The weight of each sample was recorded. Multiple collections of feces during each collection interval from each individual subject were pooled. The feces samples were thoroughly homogenized with water (4X the weight of the feces). A 100 g sample was aliquoted into a separately labeled container to be sent to ABC Laboratories for radioactivity analysis. An approximately 10 g sample from each collection interval from each subject on day 8 and each day thereafter was used for TRA analysis at Celerion. All fecal homogenate samples were kept frozen at −80 ± 15 °C.

[2] = Metabolite characterization by LC/MS/MS in human plasma, urine, and feces
Description: The remaining eluate stream of 0.16 mL/min from the HPLC runs was diverted to the inlet of the mass spectrometer. The samples were analyzed using a heated electrospray ionization probe. Full-scan positive ion MS data were collected using Finnigan Exactive (MS^1) or Q-Exactive (MS^1 and MS^2) mass spectrometers (Thermo Fisher Scientific Inc.) Exact conditions are described in the Online Resource 3.
Finnigan Exactive or Q-Exactive mass spectrometers (Thermo Fisher Scientific Inc., San Jose, CA) were used to collect full scan MS^1 and MS^2 data.

- share of total urinary TRA contained in the 0–72-h pool ([1]; 0–72 h): 84%
- cumulative recovery in feces during 0–144 h, share of the TRA in feces ([1]; 0–144 h): 91%
- dose recovered in feces ([1]; 0–336 h (days 0–14) postdose): 86.6%
- dose recovered in urine ([1]; 0–336 h (days 0–14) postdose): 5.4%
- total radioactive dose recovered (urine and feces) ([1]; 0–336 h postdose): 92%
Structure (SMILES): Cc1ccc([14C](=O)Nc2ccc(CN3CCN(C)CC3)c(C(F)(F)F)c2)cc1C#Cc1cnc2cccnn12 [[^14C]ponatinib]

Structure (SMILES): CN1CCN(Cc2ccc(N)cc2C(F)(F)F)CC1 [M19, 4-((4-methylpiperazin-1-yl)methyl)-3-(trifluoromethyl)aniline]
- detection in human samples (plasma, urine, feces) ([2]; in vivo): not observed in any human samples
- detection in human samples (plasma, urine, feces) ([2]; male, human, in vivo): The amide hydrolysis also would result in an aniline metabolite M19 (AP24592). However, this metabolite was not detected in any matrices.

- detection in human samples (plasma, urine, feces) ([2]; MS traces): trace levels
- Matrix (in which the metabolite was found) ([2]; human plasma, urine, feces, LC/MS/MS): Trace: P, U, F
Structure (SMILES): CC(=O)Nc1ccc(CN2CCN(C)CC2)c(C(F)(F)F)c1 [M22]
